Key:
Type in all cases: in vivo, rat
[1] = system: colonic pain threshold; experiment: Colonic pain threshold in normal rats (colonic distension); conditions: control animals
Method: (§1) Male Sprague-Dawley rats weighing 340 to 400 g were used in the study. The animals were housed three per cage in a regulated environment (20±1° C., 50±5% humidity, with light 8:00 AM to 8:00 PM). Under anethesia (ketamine 80 mg/kg i.p.; acepromazin 12 mg/kg i.p.), TNBS (50 mg/kg), or saline (1.5 mL/kg) was injected into the proximal colon (1 cm from the cecum). After the surgery, animals were individually housed in the regulated environment.
(§2) A balloon catheter (5-6 cm length) was inserted through the anus into the colon and kept in position (tip of balloon 5 cm from the anus) by taping the catheter to the base of the tail. The balloon was progressively inflated by step of 5 mm Hg, from 0 to 75 mm Hg, each step of inflation lasting 30 seconds. Each cycle of colonic distension was controlled by a standard barostat. The threshold corresponds to the pressure which produced the first abdominal contraction, at which time the cycle of distension was discontinued. To determine the colonic threshold, four cycles of distension were performed on the same animal.

[2] = system: rectal distension-induced abdominal contractions; experiment: Abdominal response induced by rectal distension in rats (basal)
Method: Male Wistar rats weighing 250 to 350 g were surgically prepared for electromyography, according to a standard technique. Rats were anesthetized by i.p. injection of acepromazine and ketamine (Imalgene 1000, Rhöne-Mérieux, Lyon, France) at doses of 0.6 and 120 mg/kg, respectively. […] Electrodes were exteriorized on the back of the neck and protected by a glass tube attached to the skin. Animals were individually housed in polypropylene cages and kept in a temperature-controlled room (21° C.). They were allowed free access to water and food (UAR pellets, Epinay, France).
(§3) Electromyographic recording began 5 days after surgery. The electrical activity of abdominal striated muscles was recorded with an electroencephalograph machine (Mini VIII, Alvar, Paris, France) using a short-time constant (0.03 sec) to remove low-frequency signals (<3 Hz) and a paper speed of 3.6 cm/minute.
Rats were placed in plastic tunnels (6 cm diameter; 25 cm length) where they could not move, escape or turn around, in order to prevent damage to the balloon. They are accustomized to this procedure for 3 or 4 days before rectal distension (RD) in order to minimize stress reaction during experiments. […] The balloon used for distension was an arterial embolectomy catheter (Fogarty, Edwards Laboratories, Inc., Santa Ana, USA). Rectal distension (RD) was performed by insertion of the balloon (2-mm diameter; 2-cm long) in the rectum, at 1 cm of the anus, the catheter being fixed at the tail. It was inflated progressively by steps of 0.4 mL, from 0 to 1.6 mL, each step of inflation lasting 5 minutes. To detect possible leakage, the volume of water introduced in the balloon was checked by complete removal with a syringe at the end of the distension period. […]
(§4) Statistical analysis of the number of abdominal contractions occurring during each 5-minute period during RD was performed by one-way ANOVA followed by Student's paired t-test. Values were expressed as the mean±SEM, and differences were considered significant for p<0.05.

[3] = system: colonic inflammatory effect of TNBS; experiment: Colonic inflammatory parameters after TNBS in rats; conditions: gabapentin 100-500 mg/kg sc, CI-1008 30-200 mg/kg sc; Day 7 after TNBS
Method: (§5) Pain threshold (pressure of distension inducing the first abdominal contraction) after distal colonic distension was determined at Day 7 in two groups of awake rats: control animals and TNBS-treated animals. […] Inflammatory parameters (colon weight, area of hyperemia and necrosis and colonic myeloperoxidase content) were measured in the proximal colon at Day 7 after TNBS treatment.
Gabapentin (100, 300, and 500 mg/kg sc) and CI-1008 (30, 60, 100, and 200 mg/kg sc) were administered 30 minutes before colonic distension and measurement of the inflammatory parameters.

[4] = system: lipopolysaccharide-induced delayed rectal allodynia; experiment: LPS-colonic hypersensitivity assay (LPS-induced delayed rectal allodynia); conditions: 30 mg/kg 30 minutes prior to rectal distension; 12 hours after LPS 1 mg/kg IP; volume 0.4 mL; LPS alone 9.7±1.0, before LPS 3.7±1.0
Excerpt: The GABA analogs also have been evaluated for their ability to control and treat gastrointestinal disorders characterized as IBD and IBS. The assay utilized to evaluate the GABA analogs measures the effects of compound on lipopolysaccharide-induced delayed rectal allodynia in rats. Intraperitoneal (IP) injections of the endotoxin lipopolysaccharide (LPS) are known to induce long-lasting hyperalgesia in somatic pain models. The following assay LPS-colonic hypersensitivity assay was designed to evaluate the effect of IP injections of LPS on pain visceral threshold in an experimental model of rectal distension.
Male Wistar rats weighing 250 to 350 g were surgically prepared for electromyography, according to a standard technique. […]
as §3, with “cm/minute. […]” for “cm/minute.”
as §4

[5] = system: intracolonic formalin-induced pain; experiment: Formalin-induced inflammatory colonic pain in rats; conditions: gabapentin 100, 300, 500 mg/kg sc; CI-1008 100, 200 mg/kg sc
Method: Administration of formalin into the wall of the rat colon causes acute inflammation and visceral pain. The aim of this study was to evaluate the antinociceptive activity of gabapentin and CI-1008 in visceral pain induced by colonic intrapariental injection of formalin.
Adult female Sprague-Dawley rats weighing 240 to 260 g were used in the study. The animals were housed three per cage in a regulated environment (20±1° C., 50±5% humidity, with light 8:00 AM to 8:00 PM) prior to use in the test.
Each test animal was placed in a transparent plastic cage (27×43×28 cm) with a layer of wood shavings on the floor. Drinking water was available. […] The injection site and the zone of diffusion of Evans Blue were recorded by image analysis software. […]
As listed in increasing order of pain intensity, these behaviors were: (i) abdominal licking and nibbling (L), (ii) body stretching, i.e., backward extension of the hind limbs (B), (iii) contraction of the flanks, sometimes evolving to a stretching attitude (C), and (iv) whole body contraction, the rat standing with its back curved, occasionally further graded according to the duration of the given episode: W1 for less than 30 seconds, W2 between 30 seconds and 1 minute, and W3 for more than 1 minute. Behaviors were recorded for each animal throughout the 2-hour test on individual charts. […]

[6] = system: TNBS-induced colonic allodynia; experiment: TNBS-induced chronic colonic allodynia in rats, colonic distension threshold; conditions: for Colonic Threshold: TNBS rats
Method: GABA analogs were evaluated in rats suffering from chronic visceral allodynia induced by trinitrobenzene sulfonic acid (TNBS). […] In humans, digestive disorders are often associated with visceral pain. In these pathologies, the visceral pain threshold is decreased, indicating a visceral hypersensitivity. Consequently, the following study was designed to evaluate the effect of injection of TNBS into the colon on visceral pain threshold in an experimental model of colonic distension.
as §1, §2
In a third series, a group of eight rats treated with TNBS received a subcutaneous (sc) injection of gabapentin or CI-1008 30 minutes prior to initiation of the colonic distension cycle.
All test compounds were dissolved in saline except TNBS. TNBS was dissolved in EtOH 30% (w/v). Subcutaneous injection of vehicle was given in a volume of […].
Statistical significance between each group was determined using a one-way ANOVA followed by Student's unpaired t-test. Differences were considered statistically significant at p<0.05.
as §5

[7] = system: cyclooxygenase product prostaglandin E2 (PGE2); experiment: PGE2 content of gastric mucosa biopsies (ELISA) after indomethacin (Example 3); conditions: any dose tested (1-200 mg/kg oral)
Method: Gabapentin or pregabalin (CI-1008) were dissolved in water and administered orally at the following doses: 1, 10, 100, and 200 mg/kg in a volume of 1 mL. Control animals were dosed with an equal volume of vehicle (1 mL of water). Sixty minutes later, all the animals received 1 mL of a solution of indomethacin dissolved in 5% aqueous NaHCO3 (80 mg/kg). Control animals received 1 mL of 5% aqueous NaHCO3 orally. Experimental groups were as follows:
Gastric damage caused by indomethacin correlates with inhibition of the cyclooxygenase product prostaglandin E2 (PGE2). Animals were sacrificed by decapitation 4 hours post-indomethacin administration. The stomach was removed and opened along the greater curvature and its image digitized and stored on an optical disk using a 486-based PC computer equipped with CUE3 system imaging analysis software (Olympus Corp., Marietta, Ga., USA). Two 6-mm biopsies were taken from a constant region of the gastric mucosa located in each side of the glandular portion of the stomach, and their PGE2 content was measured using a commercially available ELISA kit (Assay Designs Inc., Ann Arbor, Mich., USA). The presence of gastric damage was determined using the retrieved electronic image, and the extent of damage was measured using the CUE3 imaging software. Data are expressed as a percent of gastric area damaged and the PGE2 content (pg/mL).

Row | Compound | colonic pain threshold in normal conditions ([1]; 200 mg/kg sc) | number of cramps on rectal distension ([2]; 10 mg/kg injected 120 minutes before rectal distension, all distension volumes) | number of cramps on rectal distension ([2]; 30 mg/kg injected 120 minutes before rectal distension, all distension volumes) | number of cramps on rectal distension ([2]; 30 mg/kg, distension volumes of 0.4 and 0.8 mL) | colonic inflammatory effect of TNBS (colon weight, hyperemia, necrosis, myeloperoxidase) [3] | number of abdominal contractions [4] | pain score induced by intracolonic formalin [5] | Colonic Threshold ([6]; 30 mg/kg sc 30 min before distension, TNBS 17.81, Sham 33.44, Control 43.39) | Colonic Threshold ([6]; 60 mg/kg sc, TNBS 17.81, Control 43.39) | allodynia induced by TNBS ([6]; 100 mg/kg sc) | inhibition of TNBS-induced colonic allodynia / decrease in pain threshold (dose relation) ([6]; gabapentin 100, 300, 500 mg/kg sc, CI-1008 30, 60, 100, 200 mg/kg sc, 30 minutes before colonic distension) | modification of indomethacin inhibition of PGE2 [7] | colonic pain threshold in normal conditions ([1]; 0.3 mg/kg sc) | TNBS-induced decrease in pain threshold after colonic distension ([6]; 0.1 mg/kg sc)
1 | CC(C)C[C@H](CN)CC(=O)O [CI-1008, (S)-3-(aminomethyl)-5-methylhexanoic acid] | neither gabapentin (500 mg/kg sc) nor CI-1008 (200 mg/kg sc) modified the colonic pain threshold | had a similar effect at all distension volumes | had a similar effect at all distension volumes | reduced the number of cramps | neither gabapentin nor CI-1008 inhibited the colonic inflammatory effect of TNBS | 1.8±0.9 | significantly and dose-dependently decreased the pain score | 21.72 mm Hg | 25.47 mm Hg | completely suppressed | dose-related inhibition | Neither gabapentin nor CI-1008, at any dose tested, were able to significantly modify this effect |  | 
2 | CN1CC[C@]23c4c5ccc(O)c4O[C@H]2[C@@H](O)C=C[C@H]3[C@H]1C5 [Morphine] |  |  |  |  |  |  |  |  |  |  |  |  | significantly increased the colonic pain threshold | completely suppressed

Source: US6426368B2, “Method for preventing and treating alcoholism” (Warner-Lambert Company, priority 1997, dated 2002)
